Measured values from PMC11106742, “Computational Design of Cyclic Peptide Inhibitors of a Bacterial Membrane Lipoprotein Peptidase” (ACS Chemical Biology, 2024).
In brackets after ≈: the same amount, converted by molar mass. Where two headings read alike, the source gives them in different places. Numbered stars: 1 amine (or outer) side, 2 acyl side, 3 side chain; on linkers, the order of the positions; unused ones are H or OH. Square brackets hold non-standard residues; d marks the D form. Peptide text beside a SMILES is read from it. X1 = CCCCCCCCN([C@@H](C)C(=O)[*:2])[*:1]; X2 = CCCCC[C@@H](C)N(CC(=O)[*:2])[*:1]; aIle = CC[C@@H](C)[C@H](N)C(=O)O; aThr = C[C@H](O)[C@H](N)C(=O)O; NMeL = CN[C@@H](CC(C)C)C(=O)O; βAla = NCCC(=O)O

Experiments:
A. baumannii AB17978 = experiment: microbe, parasite or virus in culture; type: cell-based, Acinetobacter baumannii
Description: (§1) MIC values were determined in cation-adjusted Mueller-Hinton broth using the broth microdilution method according to CLSI guidelines. Plates were incubated for 16 to 24 h at 37 °C.
(§2) Six biological replicates were performed across three different 2-fold dilution series, starting at concentration of 100 µg/ml, 80 µg/ml or 64 µg/ml. The lowest concentration of antimicrobial inhibiting growth was taken as the MIC. This was established by visual inspection of the medium after the incubation period with a lack of turbidity of the growth medium indicating no growth.[3] […]

A. baumannii AB5075 = experiment: microbe, parasite or virus in culture; type: cell-based, Acinetobacter baumannii
Description: as §1, §2

PaLspA = target: T1, PaLspA (Pseudomonas aeruginosa, UniProt Q9HVM5); experiment: biochemical
T1 construct: made in house
T1 sequence (Q9HVM5 1-169): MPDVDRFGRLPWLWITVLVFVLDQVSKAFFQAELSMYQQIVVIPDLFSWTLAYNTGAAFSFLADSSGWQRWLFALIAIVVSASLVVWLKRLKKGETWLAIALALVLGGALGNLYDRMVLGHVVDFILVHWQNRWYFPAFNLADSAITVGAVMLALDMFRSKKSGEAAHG
Description: These analogues were tested for activity against PaLspA using an in vitro fluorescence resonance energy transfer (FRET) activity assay.[21] LspA inhibition was detected by a change in fluorescence upon cleavage of a FRET peptide substrate containing an N-terminal quencher moiety and a C-terminal fluorophore.
(A) Structures of G2a and G2d. (B) Results of the FRET dose–response assays. PaLspA concentration was 40 nM, FRET substrate concentration was 50 μM, and the concentration of inhibitors globomycin, G2a, and G2d ranged from 0–3,000 nM. (C) SDS-PAGE gels and quantitation of the PaLspA gel-shift dose–response assays. ppICP concentration was 12 μM, DOPG concentration was 600 μM, and Lgt concentration was 1.2 μM. The Lgt-catalyzed reaction was allowed to proceed for 60 min at 37 °C, after which inhibitors (0–1000 nM) were added. The PaLspA reaction was initiated by the addition of 100 nM enzyme. The LspA reaction was allowed to proceed for 30 min at 37 °C before being quenched with SDS-PAGE loading buffer (62.5 mM Tris/HCl pH 6.8, 2.5% (w/v) SDS, 0.002% (w/v) bromophenol blue, 0.5 M β-mercaptoethanol, 10% (v/v) glycerol). Quantitation of the gel-shift assays was performed using Image Lab, and data were plotted using GraphPad Prism.
Materials: All reagents were obtained from commercial sources and used without additional purification. All aqueous solutions were prepared using ultrapure laboratory grade water (deionized, filtered, and sterilized) obtained from an in-house ELGA water purification system. […]
Expression and purification of PaLspA, Lgt, EcLspA and ppICP: PaLspA, Lgt and pre-proICP (ppICP) were expressed and purified using previously published protocols (Vogely et al, 2016).[1] EcLspA was expressed and purified as described for PaLspA, with the following modification. The lysis buffer was 50 mM Hepes pH 7.5, 150 mM NaCl, 1 mM TCEP, 10 %(v/v) glycerol. Isolated membranes, containing EcLspA, were solubilized with 1 %(v/v) FC12 for 2 h at […]

P. aeruginosa 950 = experiment: microbe, parasite or virus in culture; type: cell-based, Pseudomonas aeruginosa
Description: as §1, §2

E. coli ATCC25922 = experiment: microbe, parasite or virus in culture; type: cell-based, Escherichia coli
Description: as §1, §2

Compound `CCCCCC[C@H]1OC(=O)CNC(=O)[C@H]([C@H](C)O)NC(=O)[C@H](CO)NC(=O)[C@H]([C@H](C)CC)NC(=O)[C@H](CC(C)C)N(C)C(=O)[C@@H]1C` [globomycin, reference compound] has an MIC (A. baumannii AB17978; Acinetobacter baumannii, A. baumannii AB17978, cation-adjusted Mueller-Hinton broth, 16 to 24 h, 37 °C, read-out: MIC) of 16 µg/mL (≈ 24.4 µM), an MIC (A. baumannii AB5075; Acinetobacter baumannii, A. baumannii AB5075, cation-adjusted Mueller-Hinton broth, 16 to 24 h, 37 °C, read-out: MIC) of 32 µg/mL (≈ 48.8 µM) and an IC50 (PaLspA) of 40 nM. It also gave an MIC (P. aeruginosa 950; Pseudomonas aeruginosa, P. aeruginosa 950, cation-adjusted Mueller-Hinton broth, 16 to 24 h, 37 °C, read-out: MIC) of 16 µg/mL (≈ 24.4 µM) and an MIC (E. coli ATCC25922; Escherichia coli, E. coli ATCC25922, cation-adjusted Mueller-Hinton broth, 16 to 24 h, 37 °C, read-out: MIC) of 10 µg/mL (≈ 15.2 µM).

Compound `CCCCCCCCN1C(=O)CCNC(=O)[C@H]([C@H](C)O)NC(=O)[C@H](CO)NC(=O)[C@H]([C@H](C)CC)NC(=O)[C@H](CC(C)C)N(C)C(=O)[C@@H]1C` [G2a] (cyclo([NMeL][aIle]S[aThr][βAla][X1])) has an MIC (A. baumannii AB17978; AB17978) of 12.5 µg/mL (≈ 18.3 µM), an MIC (A. baumannii AB5075; AB5075) of 16 µg/mL (≈ 23.4 µM) and an IC50 (PaLspA) of 304 ± 62 nM. For the same compound, the MIC (P. aeruginosa 950; 950) was 32 µg/mL (≈ 46.9 µM) and the MIC (E. coli ATCC25922; ATCC25922) was 32 µg/mL (≈ 46.9 µM).

Compound `CCCCC[C@@H](C)N1CC(=O)N(C)[C@@H](CC(C)C)C(=O)N[C@@H]([C@H](C)CC)C(=O)N[C@@H](CO)C(=O)N[C@@H]([C@H](C)O)C(=O)NCCC1=O` [G1b] (cyclo([NMeL][aIle]S[aThr][βAla][X2])) has an MIC (A. baumannii AB17978; AB17978) of 16 µg/mL (≈ 24.4 µM), an MIC (A. baumannii AB5075; AB5075) of 25 µg/mL (≈ 38.2 µM) and an IC50 (PaLspA) of 3680 ± 420 nM. The MIC (P. aeruginosa 950; 950) was 32 µg/mL (≈ 48.9 µM) and the MIC (E. coli ATCC25922; ATCC25922) was 32 µg/mL (≈ 48.9 µM).
